Article PMC8617944, “Preclinical Pharmacokinetics and Acute Toxicity in Rats of 5-{[(2E)-3-Bromo-3-carboxyprop-2-enoyl]amino}-2-hydroxybenzoic Acid: A Novel 5-Aminosalicylic Acid Derivative with Potent Anti-Inflammatory Activity” (Molecules, 2021)
Entries after “also recorded” stand apart in the source; their conditions may differ. Where two headings read alike, the source gives them in different places.

Columns and labels:
[1] = Distribution of C1 in tissues; type: in vivo, Wistar rats; settings: p.o. 75 mg/kg
Method: Fifteen male Wistar rats were distributed in five groups (n = 3) and rats were orally administered C1 at a single dose of 75 mg/kg. Subsequently, a group of animals was sacrificed (n = 3) at 10, 30, 90, 180, and 360 min. […] All tissues and organs were weighed on an analytical balance and immediately processed. Each tissue sample was homogenized with saline solution in a 1:3 (wt/v) ratio. The preparation process for analysis was the same as described above for plasma samples [57] (File S8).

[2] = parameters: method as in ref 32, 33 = [32]; doi:10.1016/j.arabjc.2016.12.026; 32. Cabrera Pérez L.C. Gutiérrez Sánchez M. Mendieta Wejebe J.E. Hernández Rodríguez M. Fragoso Vázquez M.J. Salazar J.R. Correa Basurto J. Padilla Martínez I.I. Rosales Hernández M.C. Novel 5-aminosa || [33]; 33. Correa Basurto J. Rosales Hernández M.C. Mendieta Wejebe J.E. Trujillo Ferrara J.G. Padilla Martínez I.I. Ramírez Durán L.A. Alemán González Duhart D. Síntesis de un derivado del ácido 5-aminosali; settings: 0.408 mM; cited from earlier work

O=C(/C=C(/Br)C(=O)O)Nc1ccc(O)c(C(=O)O)c1 [Compound C1, 5-{[(2E)-3-bromo-3-carboxyprop-2-enoyl]amino}-2-hydroxybenzoic acid]
concentration at 90 min ([1]; male, Wistar, rat, heart, po, 75 mg/kg, Hearth, 90 min, n = 3, read-out: Average Concentration): 3.2 µg/mL | concentration at 3 h ([1]; male, Wistar, rat, heart, po, 75 mg/kg, Hearth, 3 h, n = 3, read-out: Average Concentration): 2.9 µg/mL | concentration at 6 h ([1]; male, Wistar, rat, heart, po, 75 mg/kg, Hearth, 6 h, n = 3, read-out: Average Concentration): 2.7 µg/mL | concentration at 30 min ([1]; male, Wistar, rat, heart, po, 75 mg/kg, Hearth, individual rats, read-out: Concentration (µg/mL) at 30 minutes, Rat 1-3): 3.8 µg/mL | concentration at 90 min ([1]; male, Wistar, rat, heart, po, 75 mg/kg, Hearth, individual rats, read-out: Concentration (µg/mL) at 90 minutes, Rat 1-3): 2.7 µg/mL | concentration at 3 h ([1]; male, Wistar, rat, heart, po, 75 mg/kg, Hearth, individual rats, read-out: Concentration (µg/mL) at 3 h, Rat 1-3): 2.5 µg/mL | concentration at 6 h ([1]; male, Wistar, rat, heart, po, 75 mg/kg, Hearth, individual rats, read-out: Concentration (µg/mL) at 6 h, Rat 1-3): 2.4 µg/mL | concentration at 10 min ([1]; male, Wistar, rat, kidney, po, 75 mg/kg, Kidney, 10 min, n = 3, read-out: Average Concentration): 16 µg/mL | concentration at 30 min ([1]; male, Wistar, rat, kidney, po, 75 mg/kg, Kidney, 30 min, n = 3, read-out: Average Concentration): 6.9 µg/mL | concentration at 90 min ([1]; male, Wistar, rat, kidney, po, 75 mg/kg, Kidney, 90 min, n = 3, read-out: Average Concentration): 4.8 µg/mL | concentration at 3 h ([1]; male, Wistar, rat, kidney, po, 75 mg/kg, Kidney, 3 h, n = 3, read-out: Average Concentration): 4.7 µg/mL | concentration at 6 h ([1]; male, Wistar, rat, kidney, po, 75 mg/kg, Kidney, 6 h, n = 3, read-out: Average Concentration): 4.1 µg/mL | concentration at 30 min ([1]; male, Wistar, rat, kidney, po, 75 mg/kg, Kidney, individual rats, read-out: Concentration (µg/mL) at 30 minutes, Rat 1-3): 6.1 µg/mL | concentration at 90 min ([1]; male, Wistar, rat, kidney, po, 75 mg/kg, Kidney, individual rats, read-out: Concentration (µg/mL) at 90 minutes, Rat 1-3): 3.6 µg/mL | concentration at 10 min ([1]; male, Wistar, rat, liver, po, 75 mg/kg, Liver, 10 min, n = 3, read-out: Average Concentration): 4.6 µg/mL | concentration at 30 min ([1]; male, Wistar, rat, liver, po, 75 mg/kg, Liver, 30 min, n = 3, read-out: Average Concentration): 6.4 µg/mL | concentration at 90 min ([1]; male, Wistar, rat, liver, po, 75 mg/kg, Liver, 90 min, n = 3, read-out: Average Concentration): 4.4 µg/mL | concentration at 3 h ([1]; male, Wistar, rat, liver, po, 75 mg/kg, Liver, 3 h, n = 3, read-out: Average Concentration): 4.9 µg/mL | concentration at 6 h ([1]; male, Wistar, rat, liver, po, 75 mg/kg, Liver, 6 h, n = 3, read-out: Average Concentration): 4.2 µg/mL | concentration at 10 min ([1]; male, Wistar, rat, liver, po, 75 mg/kg, Liver, individual rats, read-out: Concentration (µg/mL) at 10 minutes, Rat 1-3): 4.4 µg/mL | concentration at 30 min ([1]; male, Wistar, rat, liver, po, 75 mg/kg, Liver, individual rats, read-out: Concentration (µg/mL) at 30 minutes, Rat 1-3): 5.8 µg/mL | concentration at 10 min ([1]; male, Wistar, rat, lung, po, 75 mg/kg, Lung, 10 min, n = 3, read-out: Average Concentration): 15.7 µg/mL | concentration at 30 min ([1]; male, Wistar, rat, lung, po, 75 mg/kg, Lung, 30 min, n = 3, read-out: Average Concentration): 10.7 µg/mL | concentration at 90 min ([1]; male, Wistar, rat, lung, po, 75 mg/kg, Lung, 90 min, n = 3, read-out: Average Concentration): 7.4 µg/mL | concentration at 3 h ([1]; male, Wistar, rat, lung, po, 75 mg/kg, Lung, 3 h, n = 3, read-out: Average Concentration): 7.2 µg/mL | concentration at 6 h ([1]; male, Wistar, rat, lung, po, 75 mg/kg, Lung, 6 h, n = 3, read-out: Average Concentration): 6.3 µg/mL | concentration at 10 min ([1]; male, Wistar, rat, muscle, po, 75 mg/kg, Muscle, 10 min, n = 3, read-out: Average Concentration): 4.7 µg/mL | concentration at 30 min ([1]; male, Wistar, rat, muscle, po, 75 mg/kg, Muscle, 30 min, n = 3, read-out: Average Concentration): 3.8 µg/mL | concentration at 90 min ([1]; male, Wistar, rat, muscle, po, 75 mg/kg, Muscle, 90 min, n = 3, read-out: Average Concentration): 3.3 µg/mL | concentration at 3 h ([1]; male, Wistar, rat, muscle, po, 75 mg/kg, Muscle, 3 h, n = 3, read-out: Average Concentration): 2.7 µg/mL | concentration at 6 h ([1]; male, Wistar, rat, muscle, po, 75 mg/kg, Muscle, 6 h, n = 3, read-out: Average Concentration): 2.5 µg/mL | concentration at 10 min ([1]; male, Wistar, rat, muscle, po, 75 mg/kg, Muscle, individual rats, read-out: Concentration (µg/mL) at 10 minutes, Rat 1-3): 4.8 µg/mL | concentration at 30 min ([1]; male, Wistar, rat, muscle, po, 75 mg/kg, Muscle, individual rats, read-out: Concentration (µg/mL) at 30 minutes, Rat 1-3): 3.4 µg/mL | concentration at 90 min ([1]; male, Wistar, rat, muscle, po, 75 mg/kg, Muscle, individual rats, read-out: Concentration (µg/mL) at 90 minutes, Rat 1-3): 3.2 µg/mL | concentration at 3 h ([1]; male, Wistar, rat, muscle, po, 75 mg/kg, Muscle, individual rats, read-out: Concentration (µg/mL) at 3 h, Rat 1-3): 3 µg/mL | Tmax ([1]; male, Wistar, rat, po, rats, read-out: time of maximum concentration in tissues and organs (converted)): 10 min | concentration at 10 min ([1]; male, Wistar, rat, small intestine, po, 75 mg/kg, Small intestine, 10 min, n = 3, read-out: Average Concentration): 31.6 µg/mL | concentration at 30 min ([1]; male, Wistar, rat, small intestine, po, 75 mg/kg, Small intestine, 30 min, n = 3, read-out: Average Concentration): 15.7 µg/mL | concentration at 90 min ([1]; male, Wistar, rat, small intestine, po, 75 mg/kg, Small intestine, 90 min, n = 3, read-out: Average Concentration): 15.8 µg/mL | concentration at 3 h ([1]; male, Wistar, rat, small intestine, po, 75 mg/kg, Small intestine, 3 h, n = 3, read-out: Average Concentration): 14.8 µg/mL | concentration at 6 h ([1]; male, Wistar, rat, small intestine, po, 75 mg/kg, Small intestine, 6 h, n = 3, read-out: Average Concentration): 10.1 µg/mL | concentration at 90 min ([1]; male, Wistar, rat, small intestine, po, 75 mg/kg, Small intestine, individual rats, read-out: Concentration (µg/mL) at 90 minutes, Rat 1-3): 15.1 µg/mL | concentration at 3 h ([1]; male, Wistar, rat, small intestine, po, 75 mg/kg, Small intestine, individual rats, read-out: Concentration (µg/mL) at 3 h, Rat 1-3): 14.2 µg/mL | concentration at 6 h ([1]; male, Wistar, rat, small intestine, po, 75 mg/kg, Small intestine, individual rats, read-out: Concentration (µg/mL) at 6 h, Rat 1-3): 9.1 µg/mL | concentration at 10 min ([1]; male, Wistar, rat, spleen, po, 75 mg/kg, Spleen, 10 min, n = 3, read-out: Average Concentration): 31.8 µg/mL | concentration at 30 min ([1]; male, Wistar, rat, spleen, po, 75 mg/kg, Spleen, 30 min, n = 3, read-out: Average Concentration): 17.2 µg/mL | concentration at 90 min ([1]; male, Wistar, rat, spleen, po, 75 mg/kg, Spleen, 90 min, n = 3, read-out: Average Concentration): 11.7 µg/mL | concentration at 3 h ([1]; male, Wistar, rat, spleen, po, 75 mg/kg, Spleen, 3 h, n = 3, read-out: Average Concentration): 8.7 µg/mL | concentration at 6 h ([1]; male, Wistar, rat, spleen, po, 75 mg/kg, Spleen, 6 h, n = 3, read-out: Average Concentration): 7.8 µg/mL | concentration at 10 min ([1]; male, Wistar, rat, spleen, po, 75 mg/kg, Spleen, individual rats, read-out: Concentration (µg/mL) at 10 minutes, Rat 1-3): 30 µg/mL | concentration at 30 min ([1]; male, Wistar, rat, spleen, po, 75 mg/kg, Spleen, individual rats, read-out: Concentration (µg/mL) at 30 minutes, Rat 1-3): 21 µg/mL | concentration at 10 min ([1]; male, Wistar, rat, stomach, po, 75 mg/kg, Stomach, 10 min, n = 3, read-out: Average Concentration): 18.3 µg/mL | concentration at 30 min ([1]; male, Wistar, rat, stomach, po, 75 mg/kg, Stomach, 30 min, n = 3, read-out: Average Concentration): 10.2 µg/mL | concentration at 90 min ([1]; male, Wistar, rat, stomach, po, 75 mg/kg, Stomach, 90 min, n = 3, read-out: Average Concentration): 7.9 µg/mL | concentration at 3 h ([1]; male, Wistar, rat, stomach, po, 75 mg/kg, Stomach, 3 h, n = 3, read-out: Average Concentration): 6.4 µg/mL | concentration at 6 h ([1]; male, Wistar, rat, stomach, po, 75 mg/kg, Stomach, 6 h, n = 3, read-out: Average Concentration): 4.7 µg/mL | concentration at 10 min ([1]; male, Wistar, rat, testis, po, 75 mg/kg, Testis, 10 min, n = 3, read-out: Average Concentration): 9.9 µg/mL | concentration at 30 min ([1]; male, Wistar, rat, testis, po, 75 mg/kg, Testis, 30 min, n = 3, read-out: Average Concentration): 3.8 µg/mL | concentration at 90 min ([1]; male, Wistar, rat, testis, po, 75 mg/kg, Testis, 90 min, n = 3, read-out: Average Concentration): 4 µg/mL | concentration at 3 h ([1]; male, Wistar, rat, testis, po, 75 mg/kg, Testis, 3 h, n = 3, read-out: Average Concentration): 3 µg/mL | concentration at 6 h ([1]; male, Wistar, rat, testis, po, 75 mg/kg, Testis, 6 h, n = 3, read-out: Average Concentration): 3.1 µg/mL | concentration at 30 min ([1]; male, Wistar, rat, testis, po, 75 mg/kg, Testis, individual rats, read-out: Concentration (µg/mL) at 30 minutes, Rat 1-3): 4 µg/mL | concentration at 3 h ([1]; male, Wistar, rat, testis, po, 75 mg/kg, Testis, individual rats, read-out: Concentration (µg/mL) at 3 h, Rat 1-3): 3.1 µg/mL | concentration at 6 h ([1]; male, Wistar, rat, testis, po, 75 mg/kg, Testis, individual rats, read-out: Concentration (µg/mL) at 6 h, Rat 1-3): 2.1 µg/mL | crossing of blood-brain barrier and hemato-testicular barrier ([1]; rats, 75 mg/kg): able to cross the blood-brain barrier and hemato-testicular barrier; also recorded: crossed the hemato-encephalic barrier | reduction of the free radical DPPH [2]: about 90%
